What all share (type): cell-based
Assay [1] deals with MOLT-4 cells. Briefly: MOLT-4 cell viability, CTG assay. The conditions noted are these: Homo sapiens, MOLT-4, 48 h. The method, boiled down: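 Viability read as total ATP luminescence (CTG) after 48 h compound treatment, 11 points at 5-fold spacing in triplicate, cells in RPMI 1640/10% FBS. IC50 is the concentration halving signal relative to control, four-parameter fit, averaged over at least 2 experiments.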

The target in the next assay is T1, Bcl-xL (Homo sapiens, UniProt Q07817).
T1 construct: Measured levels of Bcl-xL protein of HCT116 cells treated with the tested compounds; host or cells: HCT116
Briefly: HCT116 Bcl-xL degradation, capillary-based immunoassay (WES). The conditions noted are these: for remaining activity at 0.01 µM / remaining activity at 0.1 µM: HCT-116, 24 h, % of untreated cells; for remaining activity at 0.01 µM: HCT116, 10 nM; for remaining activity at 0.1 µM: HCT116, 100 nM; for DC50: HCT116, 24 h, 9-point serial dilution. The method, boiled down:
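Bcl-xL protein level by capillary WES immunoassay in HCT116 lysates, as % of untreated after cofilin normalization. Compound exposure was 24 h at 10 and 100 nM and/or a 9-point series, in quadruplicate. Four-parameter fitting gave the DC50.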

Assay [2] relates to MOLT-4 cells. Briefly: MOLT-4 cell viability, MTT assay. The note with it: Homo sapiens, MOLT-4, 48 h. The text has this: The MTT colorimetric assay is based on the mitochondrial reduction of tetrazolium salt by living cells. The viable cell number is proportional to the production of formazan salts, which can be read spectrophotometrically at 540 nm. The CTG luminescent assay (CellTiter GLO, Promega) is based on a reagent which lyses cells and measures total adenosine triphosphate (ATP) content. The viable cell number is proportional to the production of ATP.
MOLT-4 cells were purchased from ATCC and cultivated in RPMI 1640 supplemented with 10% heat inactivated fetal bovine serum, penicillin (100 IU/mi), streptomycin (100 μg/ml) and L-glutamine (2 mM). Cells were cultured at 37° C. in a humidified atmosphere containing 5% […].
For MTT assay, cells were seeded in 96 microwell plates (150 μL per well) and exposed to the compounds for 48 h (3.16 fold serially diluted; 9 concentrations each, triplicates). At the end of incubation time, 15 μL of MTT solution (5 mg/ml) were added per well and the cells were incubated for another 4 h. Then, 100 μL of 10% Sodium Dodecyl Sulfate (SDS)/HCl 10 mM were added per well and the plate was incubated overnight, before measurement of optical density at 540 nm.
IC50, were calculated using standard four-parametric curve fitting. IC50 is defined as the compound concentration at which the MTT or CTG signal is reduced to 50% of that measured for the control. Results shown in Table 14 represent the mean of at least 2 independent experiments.

T1 sequence (Q07817 whole entry): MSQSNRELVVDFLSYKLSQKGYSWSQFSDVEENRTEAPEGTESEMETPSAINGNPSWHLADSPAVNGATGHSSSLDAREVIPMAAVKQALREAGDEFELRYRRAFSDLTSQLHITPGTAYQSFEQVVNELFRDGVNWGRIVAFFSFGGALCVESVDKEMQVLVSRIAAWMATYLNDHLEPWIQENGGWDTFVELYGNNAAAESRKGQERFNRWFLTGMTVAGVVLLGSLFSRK

For `Cc1c(Nc2nc3ccccc3s2)nnc2c1CCCN2c1ccc(-c2cnn(CC34CC5(C)CC(C)(C3)CC(OCCN(C)CCOCCOCCNc3cccc6c3C(=O)N(C3CCC(=O)NC3=O)C6=O)(C5)C4)c2C)c(C(=O)O)n1` (stereo not shown) [Example 12, 6-[3-(1,3-benzothiazol-2-ylamino)-4-methyl-6,7-dihydro-5H-pyrido[2,3-c]pyridazin-8-yl]-3-[1-[[3-[2-[2-[2-[2-[[2-(2,6-dioxo-3-piperidyl)-1,3-dioxo-isoindolin-4-yl]amino]ethoxy]ethoxy]ethyl-methyl-amino]ethoxy]-5,7-dimethyl-1-adamantyl]methyl]-5-methyl-pyrazol-4-yl]pyridine-2-carboxylic acid], the IC50 came to 19.9 nM with MOLT-4 cells [1] and 9.49 nM with MOLT-4 cells [2]. Besides, the remaining activity at 0.01 µM on Bcl-xL worked out at 69%. Moreover, the remaining activity at 0.1 µM at Bcl-xL was 69%.

In the case of `Cc1cc(N(CCCCCn2cc(COCCOCCNC(=O)COc3cccc4c3C(=O)N(C3CCC(=O)NC3=O)C4=O)nn2)c2ccc(-c3cnn(CC45CC6(C)CC(C)(C4)CC(OCCN(C)C)(C6)C5)c3C)c(C(=O)O)n2)nnc1Nc1nc2ccccc2s1` (stereo not shown) [Example 65, 6-[[6-(1,3-benzothiazol-2-ylamino)-5-methyl-pyridazin-3-yl]-[5-[4-[2-[2-[[2-[2-(2,6-dioxo-3-piperidyl)-1,3-dioxo-isoindolin-4-yl]oxyacetyl]amino]ethoxy]ethoxymethyl]triazol-1-yl]pentyl]amino]-3-[1-[[3-[2-(dimethylamino)ethoxy]-5,7-dimethyl-1-adamantyl]methyl]-5-methyl-pyrazol-4-yl]pyridine-2-carboxylic acid], the IC50 with MOLT-4 cells [1] was determined as 140 nM; in the assay on MOLT-4 cells [2], 156 nM. Also, on Bcl-xL, the remaining activity at 0.01 µM was 90%. Further, the remaining activity at 0.1 µM at Bcl-xL is 78%.

On to `Cc1cc(N(CCCCCn2cc(CCCCCCCNC(=O)COc3cccc4c3C(=O)N(C3CCC(=O)NC3=O)C4=O)nn2)c2ccc(-c3cnn(CC45CC6(C)CC(C)(C4)CC(OCCN(C)C)(C6)C5)c3C)c(C(=O)O)n2)nnc1Nc1nc2ccccc2s1` (stereo not shown) [Example 64, 6-[[6-(1,3-benzothiazol-2-ylamino)-5-methyl-pyridazin-3-yl]-[5-[4-[7-[[2-[2-(2,6-dioxo-3-piperidyl)-1,3-dioxo-isoindolin-4-yl]oxyacetyl]amino]heptyl]triazol-1-yl]pentyl]amino]-3-[1-[[3-[2-(dimethylamino)ethoxy]-5,7-dimethyl-1-adamantyl]methyl]-5-methyl-pyrazol-4-yl]pyridine-2-carboxylic acid], for which it took 118 nM to reach half-maximal inhibition in the assay with MOLT-4 cells [1] (IC50). Besides, at Bcl-xL, the DC50 worked out at 46.2 nM, the remaining activity at 0.01 µM came out at 59% and the remaining activity at 0.1 µM is 40%. In addition, the 50% inhibitory concentration (IC50) in the assay on MOLT-4 cells [2] turned out to be 92.8 nM.

`CNCC#Cc1ccc(OCCCc2sc(N(CCCc3cn(CCCCCCCCNC(=O)COc4cccc5c4C(=O)N(C4CCC(=O)NC4=O)C5=O)nn3)c3cc(C)c(Nc4nc5ccccc5s4)nn3)nc2C(=O)O)c(F)c1` (stereo not shown) [Example 30, 2-[[6-(1,3-benzothiazol-2-ylamino)-5-methyl-pyridazin-3-yl]-[3-[1-[8-[[2-[2-(2,6-dioxo-3-piperidyl)-1,3-dioxo-isoindolin-4-yl]oxyacetyl]amino]octyl]triazol-4-yl]propyl]amino]-5-[3-[2-fluoro-4-[3-(methylamino)prop-1-ynyl]phenoxy]propyl]thiazole-4-carboxylic acid] gave an IC50 in the assay on MOLT-4 cells [1] of 477 nM. On Bcl-xL, the remaining activity at 0.01 µM came to 118% and the remaining activity at 0.1 µM came out at 73%. The compound further returned an IC50 with MOLT-4 cells [2] of 133 nM.

In the assay with MOLT-4 cells [1], `Cc1c(Nc2nc3ccccc3s2)nnc2c1CCCN2c1ccc(-c2cnn(CC34CC5(C)CC(C)(C3)CC(OCCN(C)CCOCCOCCOCCOCCOCCNc3cccc6c3C(=O)N(C3CCC(=O)NC3=O)C6=O)(C5)C4)c2C)c(C(=O)O)n1` (stereo not shown) [Example 13, 6-[3-(1,3-benzothiazol-2-ylamino)-4-methyl-6,7-dihydro-5H-pyrido[2,3-c]pyridazin-8-yl]-3-[1-[[3-[2-[2-[2-[2-[2-[2-[2-[[2-(2,6-dioxo-3-piperidyl)-1,3-dioxo-isoindolin-4-yl]amino]ethoxy]ethoxy]ethoxy]ethoxy]ethoxy]ethyl-methyl-amino]ethoxy]-5,7-dimethyl-1-adamantyl]methyl]-5-methyl-pyrazol-4-yl]pyridine-2-carboxylic acid] registered an IC50 of 33.9 nM. Also, at Bcl-xL, the remaining activity at 0.01 µM was determined as 79% and the remaining activity at 0.1 µM turned out to be 57%. Further, the IC50 with MOLT-4 cells [2] worked out at 13.5 nM.

`CNCC#Cc1ccc(OCCCc2sc(N(CCCc3cn(CCOCCOCCOCCOCCOCCC(=O)N[C@H](C(=O)N4C[C@H](O)C[C@H]4C(=O)NCc4ccc(-c5scnc5C)cc4)C(C)(C)C)nn3)c3cc(C)c(Nc4nc5ccccc5s4)nn3)nc2C(=O)O)c(F)c1` [Example 29, 2-[[6-(1,3-benzothiazol-2-ylamino)-5-methyl-pyridazin-3-yl]-[3-[1-[2-[2-[2-[2-[2-[3-[[(1S)-1-[(2S,4R)-4-hydroxy-2-[[4-(4-methylthiazol-5-yl)phenyl]methylcarbamoyl]pyrrolidine-1-carbonyl]-2,2-dimethyl-propyl]amino]-3-oxo-propoxy]ethoxy]ethoxy]ethoxy]ethoxy]ethyl]triazol-4-yl]propyl]amino]-5-[3-[2-fluoro-4-[3-(methylamino)prop-1-ynyl]phenoxy]propyl]thiazole-4-carboxylic acid]: the IC50 in the assay on MOLT-4 cells [1] worked out at 1630 nM. Moreover, at Bcl-xL, the remaining activity at 0.01 µM turned out to be 64% and the remaining activity at 0.1 µM was determined as 67%. Besides, in the assay on MOLT-4 cells [2], the IC50 was found to be 875 nM.

In the assay on MOLT-4 cells [1], `Cc1ncsc1-c1ccc([C@H](C)NC(=O)C2C[C@@H](O)CN2C(=O)C(NC(=O)CCCCCN(C)CCOC23CC4(C)CC(C)(CC(Cn5ncc(-c6ccc(N7CCCc8c7nnc(Nc7nc9ccccc9s7)c8C)nc6C(=O)O)c5C)(C4)C2)C3)C(C)(C)C)cc1` (stereo in doubt) [Example 8, 6-[3-(1,3-benzothiazol-2-ylamino)-4-methyl-6,7-dihydro-5H-pyrido[2,3-c]pyridazin-8-yl]-3-[1-[[3-[2-[[6-[[(1S)-1-[(2S,4R)-4-hydroxy-2-[[(1S)-1-[4-(4-methylthiazol-5-yl)phenyl]ethyl]carbamoyl]pyrrolidine-1-carbonyl]-2,2-dimethyl-propyl]amino]-6-oxo-hexyl]-methyl-amino]ethoxy]-5,7-dimethyl-1-adamantyl]methyl]-5-methyl-pyrazol-4-yl]pyridine-2-carboxylic acid] returned an IC50 of 34.3 nM. For the same compound, at Bcl-xL, the remaining activity at 0.01 µM stood at 54% and the remaining activity at 0.1 µM was 37%. In the assay on MOLT-4 cells [2], this compound displayed an IC50 of 6.56 nM.

In the assay with MOLT-4 cells [1], `Cc1c(Nc2nc3ccccc3s2)nnc2c1CCCN2c1ccc(-c2cnn(CC34CC5(C)CC(C)(C3)CC(OCCN(C)CCOCCOCCOCCNc3cccc6c3C(=O)N(C3CCC(=O)NC3=O)C6=O)(C5)C4)c2C)c(C(=O)O)n1` (stereo not shown) [Example 11, 6-[3-(1,3-benzothiazol-2-ylamino)-4-methyl-6,7-dihydro-5H-pyrido[2,3-c]pyridazin-8-yl]-3-[1-[[3-[2-[2-[2-[2-[2-[[2-(2,6-dioxo-3-piperidyl)-1,3-dioxo-isoindolin-4-yl]amino]ethoxy]ethoxy]ethoxy]ethyl-methyl-amino]ethoxy]-5,7-dimethyl-1-adamantyl]methyl]-5-methyl-pyrazol-4-yl]pyridine-2-carboxylic acid] displayed an IC50 of 20.3 nM. Also, at Bcl-xL, the remaining activity at 0.01 µM amounted to 83% and the remaining activity at 0.1 µM worked out at 60%. In addition, the midpoint of inhibition with MOLT-4 cells [2], the IC50, lay at 4.29 nM.

For `Cc1c(Nc2nc3ccccc3s2)nnc2c1CCCN2c1ccc(-c2cnn(CC34CC5(C)CC(C)(C3)CC(OCCN(C)CCCCCCCCOc3ccc6c(c3)C(=O)N(C3CCC(=O)NC3=O)C6=O)(C5)C4)c2C)c(C(=O)O)n1` (stereo not shown) [Example 10, 6-[3-(1,3-benzothiazol-2-ylamino)-4-methyl-6,7-dihydro-5H-pyrido[2,3-c]pyridazin-8-yl]-3-[1-[[3-[2-[8-[2-(2,6-dioxo-3-piperidyl)-1,3-dioxo-isoindolin-5-yl]oxyoctyl-methyl-amino]ethoxy]-5,7-dimethyl-1-adamantyl]methyl]-5-methyl-pyrazol-4-yl]pyridine-2-carboxylic acid], on Bcl-xL, the DC50 is over 316 nM, the remaining activity at 0.01 µM amounted to 48% and the remaining activity at 0.1 µM stood at 43%. In addition, half-maximal inhibition in the assay on MOLT-4 cells [2] (IC50) required 0.398 nM.
